Numbers after ± are expanded uncertainties.
Conditions: 101.33 kPa, Liquid, Vibrating tube method

CCOS(=O)(=O)[O-].CCn1cc[n+](C)c1 [1-ethyl-3-methylimidazolium ethyl sulfate]
Conditions	mass density [kg/m3]
278.15 K	1250.01 ± 0.13
283.15 K	1246.61 ± 0.13
288.15 K	1243.14 ± 0.13
293.15 K	1239.68 ± 0.13
298.15 K	1236.24 ± 0.13
303.15 K	1232.82 ± 0.13
308.15 K	1229.42 ± 0.13
313.15 K	1226.03 ± 0.13
318.15 K	1222.66 ± 0.12
323.15 K	1219.3 ± 0.1
328.15 K	1215.96 ± 0.12
333.15 K	1212.63 ± 0.12
338.15 K	1209.31 ± 0.12
343.15 K	1206.01 ± 0.12

Source: the NIST ThermoML archive (doi:10.1021/je500079y)
